Data set [1] is described as follows: pKA of the ionizable group. The note with it: read-out: acidic pKA of the carboxyl group. The format is physicochemical. From the text: The Henderson-Hasselbalch equation allows for calculating the neutral fraction of an ionizable drug at healthy tissue vs. tumor extracellular pH, and thus predicting the associated cell-permeable fractions. […] The carboxyl group of YU241528 has an acidic pKA of ˜4.4, so the predicted membrane permeable fraction is ˜8-fold less at a pH of 7.4 than at 6.5.

Data set [2] in a line: Reductive activation / drug release in 5 mM GSH (simulated cytosol), LCMS. Format: in vitro ADME. The note with it: PBS containing 5 mM GSH, PBS pH 7.4, 5 mM GSH, 37° C., read-out: t1/2 of reduction of the disulfide. As for the experimental part:
In certain embodiments, the prodrug releases the active form of the drug once inside a cancer cell. Once inside the cell, drug release can be triggered by reduction of the disulfide bond in the linker. To evaluate the reductive activation of drug release, 50 μM YU241528 in a solution of PBS, pH 7.4, containing 5 mM GSH (a typical intracellular concentration of the predominant biological reducing agent) was incubated at 37° C. Aliquots were taken at regular intervals and analyzed by LCMS.

Data set [3] is described as follows: Blood levels after tail vein injection. The format is in vivo, adult female balb/c mice. As for the experimental part: Given that the drug's distribution and clearance can be expected to be substantially complete by about 6 hours after administration, in certain embodiments the peak intracellular dose is achieved long before this process might interfere to a significant degree, even assuming the altered metabolite is indeed compromised in its activity. […] In certain embodiments, the serum stability of YU241528 allows for effective therapy. […] In certain embodiments, the prodrug undergoes a different elimination path, as hepatobiliary elimination of weakly-ionic organic substances is sensitive to charge, size, and lipophilicity.

The subject of data set [4] is HeLa cells. Put plainly: pH-dependent cell uptake by flow cytometry. The format is cell-based. The settings on record: HeLa cells in suspension, 5 μM, 1 hour, pH 7.4 vs pH 6.5. From the text: FIGS. 5A-5B depict representative flow cytometry traces of pH-dependent cell treatments. […] Normalized cell counts (Y-axes) are plotted vs. doxorubicin fluorescence intensity per cell (X-axes).
Background: In flow cytometry, cells or beads pass a laser one at a time.

Data set [5] can be described thus: Serum stability of prodrug in 20% mouse serum (LCMS, 490 nm). The note with it: 37° C. Format: in vitro ADME. How it is done:
FIG. 4A depicts liquid chromatography data showing the stability of YU241528 in serum.
The prodrug strategies of this invention are thought to impart their benefits during the distribution and cell uptake steps of anticancer therapy. In certain embodiments, a prodrug is stable in the blood for a period sufficient to allow for cell uptake and systemic clearance. To test this, 50 μM YU241528 in a solution of PBS, pH 7.4, containing 20% mouse serum was incubated at 37° C. At regular intervals, aliquots were taken and mixed with 2 volumes of ethanol to precipitate serum proteins, then centrifuged. Supernatants were analyzed by LCMS. […] The predominant peak was identified as YU241528 by mass spectrometry.

A short description of data set [6]: Body weight of treated tumor-bearing mice. The note with it: IV once daily for 5 days, mice with EMT-6 flank tumors. Format: in vivo, Balb/c mice. From the text:
FIG. 7 depicts representative in vivo study on the efficacy and toxicity of compounds of the invention. […] Mean tumor volume and mean body weight graphs are shown for groups of 10 tumor-bearing mice.

The test system of data set [7] is MDA-MB-231 breast cancer cells. In words: pH-dependent cell growth inhibition, CellTiter-Glo. The note with it: 6 hours treatment at pH 7.4 vs pH 6.2, 72 hours growth. Format: cell-based, Human. How it is done:
Cells treated for 6 hours at pH 7.4 (normal physiological pH, X traces) or pH 6.2 (acidic solid tumor pH, Y traces) were subsequently allowed to grow in normal growth medium for 72 hours, then cell viability was evaluated using the CellTiter-Glo assay kit (Promega). Normalized percent cell growth inhibition is plotted on the left side of each panel and IC50 values reported at each pH from non-linear regression analysis.
(§1) In order to evaluate pH-dependent activity, treatments are performed at atypical cell culture conditions. […] Several cell lines have been evaluated using this method and for each, cell seeding density and treatment duration is independently experimentally determined. Each experiment is normalized to sham and complete activity controls for each pH condition.
Human MDA-MB-231 breast cancer cells seeded at low density on tissue culture treated 384-well plates, allowed to adhere and grow in serum-supplemented growth medium for 24 hours, then treated under pH-controlled conditions for 6 hours, and finally washed and grown in fresh growth media for 72 hours were assessed for cell survival using the CellTiter-Glo assay system (Promega) (FIG. 6).

For data set [8] the following is noted: cited from earlier work.
In data set [9] the test system is PEO1 ovarian cancer cells. Put plainly: pH-dependent cell growth inhibition, transient treatment. The format is cell-based. The settings on record: pH 7.4 vs pH 6.2. How it is done:
FIG. 9 depicts pH-dependent cell growth inhibition of PEO1 ovarian cancer cells in culture, treated transiently with various prodrugs of the invention, as described above.
FIG. 10 depicts pH-dependent cell growth inhibition of PEO1 ovarian cancer cells in culture, treated transiently with an anticancer kinase inhibitor drug, Osimertinib, or a compound of the invention, based on an active core of that drug, YU253673.
as §1
Similar results have been obtained from pH-dependent cell growth inhibition assays with other classes of Drug using the prodrug approach.

Structures are written as SMILES. Entries after “also recorded” stand apart in the source; their conditions may differ. Bounds are passed on as bounds.

Regarding `COc1cccc2c1C(=O)c1c(O)c3c(c(O)c1C2=O)C[C@@](O)(C(=O)CO)C[C@@H]3O[C@H]1C[C@H](NC(=O)OCCSSCc2ccc(C(=O)O)cc2)[C@H](O)[C@H](C)O1` [YU241528], the pKa in data set [1] is approximately 4.4. Besides, the half-life at 50 μM in data set [2] is approximately 2.7 min; in data set [5] (mouse, 20% mouse serum in PBS, pH 7.4, 50 μM, PBS pH 7.4, 20% mouse serum, read-out: t1/2 of interaction with serum) it was more than 6 h. Moreover, the “level in the blood at 6 hours post injection” value in data set [3] (6 hours) is on record as “detectable levels”. Moreover, in [3] (24 hours), the “level in the blood at 24 hours post injection” value was “undetectable”. Also, in data set [3] (female, balb/c, mouse, blood, intravenous, read-out: non-compartmental half-life in blood (converted)), the half-life is approximately 1 h. Also, the “pH preference of cell uptake” value in data set [4] was “preferentially taken up by cells at cancerous pH 6.5 versus cells at normal pH 7.4”. Besides, the “release of free doxorubicin in serum” value in data set [5] (50 μM, 20% mouse serum, over 6 hours of incubation) is “no active doxorubicin is released; also recorded: no free doxorubicin was detected”.

For the molecule `COc1cccc2c1C(=O)c1c(O)c3c(c(O)c1C2=O)C[C@@](O)(C(=O)CO)C[C@@H]3O[C@H]1C[C@H](NC(=O)OCCSSCCCc2c(F)c(F)c(O)c(F)c2F)[C@H](O)[C@H](C)O1` [YU244206], the “weight loss (mean body weight) compared to sham treated controls” value in data set [6] is given as “no detectable weight loss”. In addition, the “pH-dependent bias of cell growth inhibition” value in data set [7] is reported as “greater growth inhibition at acidic tumor pH”.

As to `COc1cccc2c1C(=O)c1c(O)c3c(c(O)c1C2=O)C[C@@](O)(C(=O)CO)C[C@@H]3O[C@H]1C[C@H](N)[C@H](O)[C@H](C)O1` [doxorubicin, reference compound], in data set [8], the “basic pKA of the amine group” value is recorded as approximately 8. In data set [7], the “pH-dependent bias of cell growth inhibition” value is listed as “greater growth inhibition at basic healthy pH”. Moreover, in data set [4], the “pH preference of cell uptake” value is given as “greater uptake into cells at normal physiologic pH 7.4 than into cells at cancerous pH 6.5”.

For the molecule `C=CC(=O)Nc1cc(Nc2nccc(-c3cn(C)c4ccccc34)n2)c(OC)cc1N(C)CCN(C)C` [Osimertinib], in data set [9], the “pH-dependent bias of cell growth inhibition” value is “slightly lower IC50 value at healthy pH 7.4”.

Turning to `COc1cccc2c1C(=O)c1c(O)c3c(c(O)c1C2=O)C[C@@](O)(C(=O)CO)C[C@@H]3O[C@H]1C[C@H](NC(=O)OCCSSCCCCCCCC(=O)O)[C@H](O)[C@H](C)O1` [YU241531], in data set [6], the “weight loss (mean body weight) compared to sham treated controls” value is listed as “no detectable weight loss”. In addition, the “pH-dependent bias of cell growth inhibition” value in [7] is “greater growth inhibition at acidic tumor pH”.

The pKa is the pH at which an ionisable group is half protonated.

Source of the values: patent US20220088204A1, “ANTICANCER DRUGS AND METHODS OF MAKING AND USING SAME” (YALE UNIVERSITY, priority 2019, published 2022).
